Here are results for five molecules from publication PMC10444862, “Using macromolecular electron densities to improve the enrichment of active compounds in virtual screening” (Communications Chemistry, 2023).

For the assay, the target named is SARS-COV-2 3CLpro (having a P132H mutation, 3CLpro^P132H) (Severe acute respiratory syndrome coronavirus 2, UniProt P0DTD1, P3395H). Format: biochemical.

A value given as a limit tells only on which side of the number the result lay.

Take `CC(=O)N1CCc2c(sc3c2c(=O)n(-c2ccccc2C)c(=O)n3Cc2cc(C)ccc2C)C1` [E16, CC(=O)N1CCc2c(sc3c2c(=O)n(-c2ccccc2C)c(=O)n3Cc2cc(C)ccc2C)C1]: the “Inhibition Rate ([Cpd.]=40 uM)” value is reported as less than 0.5.

For `COCc1ccc(C(=O)N(Cc2ccccc2)Cc2nc3ccccc3c(=O)[nH]2)cc1` [E20, COCc1ccc(C(=O)N(Cc2ccccc2)Cc2nc3ccccc3c(=O)[nH]2)cc1], the “Inhibition Rate ([Cpd.]=40 uM)” value is reported as less than 0.5. The figure for `COc1ccc(N2C(=O)C3C(Cc4c[nH]c5ccccc45)NC4(C(=O)Nc5ccccc54)C3C2=O)cc1` (centres unmarked) [E24, COc1ccc(N2C(=O)C3C(Cc4c[nH]c5ccccc45)NC4(C(=O)Nc5ccccc54)C3C2=O)cc1] is less than 0.5; for `CC(=O)N1CCc2c(sc3c2c(=O)n(-c2ccccc2)c(=O)n3CC(=O)c2ccc(F)cc2)C1` [D22, CC(=O)N1CCc2c(sc3c2c(=O)n(-c2ccccc2)c(=O)n3CC(=O)c2ccc(F)cc2)C1] it is less than 0.5; for `CC(=O)N1CCc2c(sc3c2c(=O)n(-c2ccccc2)c(=O)n3Cc2cc(C)ccc2C)C1` [E5, CC(=O)N1CCc2c(sc3c2c(=O)n(-c2ccccc2)c(=O)n3Cc2cc(C)ccc2C)C1] it is 0.64.
